Where two headings read alike, the source gives them in different places. Bounds are passed on as bounds.

Five molecules from PMC6272861, “In Vitro Inhibition of Human UDP-Glucuronosyl-Transferase (UGT) Isoforms by Astaxanthin, β-Cryptoxanthin, Canthaxanthin, Lutein, and Zeaxanthin: Prediction of in Vivo Dietary Supplement-Drug Interactions” (Molecules, 2016) can be followed below.

The target in data set [1] is T1, UGT1A6 (Homo sapiens, UniProt P19224).
T1 construct: pooled human liver microsomes (final concentration 0.25 mg/mL); tissue Corning Life Sciences; host or cells: pooled human liver microsomes, 150 donors
T1 sequence (P19224 27-532): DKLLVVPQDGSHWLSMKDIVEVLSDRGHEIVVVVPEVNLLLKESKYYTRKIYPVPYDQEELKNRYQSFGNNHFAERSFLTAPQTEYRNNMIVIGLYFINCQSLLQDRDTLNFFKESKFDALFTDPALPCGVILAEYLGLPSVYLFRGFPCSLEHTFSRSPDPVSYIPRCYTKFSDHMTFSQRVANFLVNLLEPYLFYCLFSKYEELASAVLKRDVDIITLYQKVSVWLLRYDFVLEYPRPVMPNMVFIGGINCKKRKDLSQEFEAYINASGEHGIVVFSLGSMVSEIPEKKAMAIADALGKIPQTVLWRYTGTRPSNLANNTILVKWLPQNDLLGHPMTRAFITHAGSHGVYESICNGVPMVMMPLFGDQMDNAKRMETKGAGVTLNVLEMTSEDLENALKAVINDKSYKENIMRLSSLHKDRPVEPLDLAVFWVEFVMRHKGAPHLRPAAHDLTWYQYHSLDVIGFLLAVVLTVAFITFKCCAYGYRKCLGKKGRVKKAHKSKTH
In words: Inhibition of UGT1A6 (serotonin-O-glucuronidation) in human liver microsomes. The data set is classed as in vitro ADME. To be noted: for IC50: 4000 μM serotonin, mean ± SD of triplicate, read-out: IC50 towards UGT1A6; for Residual UGT1A6 enzyme activity: highest tested concentration 50 μM.
Protocol: (§1) The formation activities of β-estradiol-3-glucuronide, chenodeoxycholic acid 24-acyl-β-D-glucuronide, trifluoperazine-N-glucuronide, imipramine-N-β-D-glucuronide, serotonin-O-glucuronide, propofol-O-glucuronide, and zidovudine-5′-glucuronide were determined to probe the activities of UGT1A1, UGT1A3, UGT1A4, UGT1A6, UGT1A9 and UGT2B7, respectively, in human liver microsomes.
(§2) In brief, the 90-µL incubation mixture, including pooled human liver microsomes (final concentration 0.25 mg/mL), 100 mM Tris buffer, 25 µg/mL alamethicin, 5 mM MgCl2, the UGT-selective substrates, and five xanthophylls (0–50 μM), were pre-incubated for 30 min on ice to allow formation of alamethicin pores. Reac2345tions were initiated by the addition of 10 μL of UDPGA (5 mM) to a final reaction volume of 0.1 mL and incubated at 37 °C for 60 min (except 30 min for UGT1A9) in a shaking water bath. After incubation, each reaction was stopped by adding 50 μL of ice-cold acetonitrile containing chlorpropamide (300 ng/mL) or theophylline (30 μg/mL or 300 μg/mL) as an internal standard. The mixtures were then centrifuged (13,000 g for 15 min at 4 °C) and 5-µL aliquots of the supernatants were injected into an LC-MS/MS system. […] All incubations were performed in triplicate, and mean values were used for analysis.
The IC50 values were calculated via nonlinear least-squares regression analysis from plots of the logarithms of inhibitor concentration vs. the residual percentages of activities after inhibition, using WinNonlin (ver. 4.0; Pharsight, Mountain View, CA, USA). The apparent inhibitory constants (the Ki values) were estimated from fitted curves using the WinNonlin software. Inhibition data were fitted to different models of enzyme inhibition (competitive, non-competitive, uncompetitive, or mixed) using nonlinear least-squares regression analysis (WinNonlin software). The most appropriate inhibition model was selected based on goodness-of-fit criteria determined via visual inspection, by calculating correlations of determination (R^2 values), and using the corrected Akaike′s Information Criterion. For visual inspection, data were presented as Dixon plots.

Data set [2] concerns the target T2, UGT2B15 (Homo sapiens, UniProt P54855).
T2 construct: purchased Corning Life Sciences
T2 sequence (P54855 24-530): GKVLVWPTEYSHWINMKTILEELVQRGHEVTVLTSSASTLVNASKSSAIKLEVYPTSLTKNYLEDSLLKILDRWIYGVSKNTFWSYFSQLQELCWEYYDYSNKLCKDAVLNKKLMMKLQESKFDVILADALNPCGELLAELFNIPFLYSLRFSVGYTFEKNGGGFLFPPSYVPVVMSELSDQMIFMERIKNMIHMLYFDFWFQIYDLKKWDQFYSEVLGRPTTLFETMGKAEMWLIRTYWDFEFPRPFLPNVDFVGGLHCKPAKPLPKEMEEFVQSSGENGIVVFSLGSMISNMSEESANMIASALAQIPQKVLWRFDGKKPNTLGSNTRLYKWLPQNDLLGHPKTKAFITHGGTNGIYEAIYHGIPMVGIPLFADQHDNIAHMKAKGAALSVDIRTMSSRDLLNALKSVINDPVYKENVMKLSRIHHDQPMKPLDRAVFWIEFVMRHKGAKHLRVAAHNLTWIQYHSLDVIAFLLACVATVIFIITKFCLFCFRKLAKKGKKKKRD
Kind of data set: Inhibition of UGT2B15 (4-methylumbelliferyl glucuronidation) in recombinant human UGT2B15 supersomes. The data set is classed as in vitro ADME. On the procedure:
Although S-oxazepam is a typical substrate of UGT2B15 of human liver microsomes, authentic S-oxazepam and the corresponding glucuronide are not commercially […]. Thus, the inhibition of AS, βC, CA, LU, and ZE on the UGT2B15 activity was assessed using 4-methylumbelliferone as the nonspecific probe substrate for all UGTs except UGT1A4 [34] in recombinant human UGT2B15 supersomes.
The reaction was initiated by addition of 10 µL 5 mM UDPGA (to 100 µL total volume) followed by incubation for 120 min at 37 °C in a shaking water bath. Reactions were stopped by addition of 50 µL of ice-cold acetonitrile containing chlorpropamide (300 ng/mL) as an internal standard, and they were chilled and centrifuged (13,000 g, 15 min, 4 °C). An aliquot of 5 μL of supernatant was injected into an LC-MS/MS system. Additionally, identical parallel incubation samples containing a known UGT2B15 inhibitor amitriptyine (0–200 μM) was included as a positive control for UGT2B15.
For visual inspection, data were presented as Dixon plots.

Data set [3] concerns the target T3, UGT2B7 (Homo sapiens, UniProt P16662).
T3 sequence (P16662 24-529): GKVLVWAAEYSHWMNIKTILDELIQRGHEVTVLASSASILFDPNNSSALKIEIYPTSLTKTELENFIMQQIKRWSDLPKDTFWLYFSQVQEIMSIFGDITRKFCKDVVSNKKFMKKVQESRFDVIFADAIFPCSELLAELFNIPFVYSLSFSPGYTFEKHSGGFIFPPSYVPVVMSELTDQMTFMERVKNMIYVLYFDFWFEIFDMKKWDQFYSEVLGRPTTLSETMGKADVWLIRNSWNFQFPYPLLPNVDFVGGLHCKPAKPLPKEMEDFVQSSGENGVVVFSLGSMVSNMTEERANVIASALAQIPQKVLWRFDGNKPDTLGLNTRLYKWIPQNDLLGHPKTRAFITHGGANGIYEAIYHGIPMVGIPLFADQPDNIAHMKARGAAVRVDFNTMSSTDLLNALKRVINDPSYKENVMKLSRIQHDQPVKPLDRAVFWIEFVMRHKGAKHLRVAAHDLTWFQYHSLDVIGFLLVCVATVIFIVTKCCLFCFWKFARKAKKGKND
Kind of data set: Inhibition of UGT2B7 (zidovudine-5′-glucuronidation) in human liver microsomes. To be noted: for Residual UGT2B7 enzyme activity: highest tested concentration 50 μM.
Protocol: as §1, §2
(§3) Chromatographic separations were performed on an Agilent Poroshell 120 EC-C18 column (50 mm × 4.6-mm i.d.; 2.7-μm particle size; Agilent Technologies) to quantify β-estradiol-3-glucuronide (UGT1A1), chenodeoxycholic acid 24-acyl-β-D-glucuronide (UGT1A3), trifluoperazine-N-glucuronide (UGT1A4), propofol-O-glucuronide (UGT1A9), zidovudine-5′-glucuronide (UGT2B7), and 4-methylumbelliferyl glucuronide (UGT2B15); an Agilent Poroshell 120 EC-C18 column (100 × 4.6-mm i.d.; 2.7-mm particle size) was used for quantification of serotonin-O-glucuronide (UGT1A6). The isocratic mobile phase consisted of distilled water (A) and acetonitrile containing 0.1% formic acid (B) at a ratio (v/v) of 10:90 for chenodeoxycholic acid 24-acyl-β-D-glucuronide, 30:70 for trifluoperazine-N-glucuronide and zidovudine-5′-glucuronide, 50:50 for propofol-O-glucuronide and 4-methylumbelliferyl glucuronide, 65:35 for β-estradiol-3-glucuronide, and 90:10 for serotonin-O-glucuronide, at a flow rate of 0.5 mL/min. The total run time was 4.0 min per sample for each metabolite, with the exception of serotonin-O-glucuronide (6.0 min). Peak areas for all of the analytes were automatically integrated using Analyst software (version 1.5.2, Applied Biosystems, Foster City, CA, USA).
(§4) The IC50 values were calculated via nonlinear least-squares regression analysis from plots of the logarithms of inhibitor concentration vs. the residual percentages of activities after inhibition, using WinNonlin (ver. 4.0; Pharsight, Mountain View, CA, USA).

The target in data set [4] is T4, UGT1A3 (Homo sapiens, UniProt P35503).
T4 sequence (P35503 29-534): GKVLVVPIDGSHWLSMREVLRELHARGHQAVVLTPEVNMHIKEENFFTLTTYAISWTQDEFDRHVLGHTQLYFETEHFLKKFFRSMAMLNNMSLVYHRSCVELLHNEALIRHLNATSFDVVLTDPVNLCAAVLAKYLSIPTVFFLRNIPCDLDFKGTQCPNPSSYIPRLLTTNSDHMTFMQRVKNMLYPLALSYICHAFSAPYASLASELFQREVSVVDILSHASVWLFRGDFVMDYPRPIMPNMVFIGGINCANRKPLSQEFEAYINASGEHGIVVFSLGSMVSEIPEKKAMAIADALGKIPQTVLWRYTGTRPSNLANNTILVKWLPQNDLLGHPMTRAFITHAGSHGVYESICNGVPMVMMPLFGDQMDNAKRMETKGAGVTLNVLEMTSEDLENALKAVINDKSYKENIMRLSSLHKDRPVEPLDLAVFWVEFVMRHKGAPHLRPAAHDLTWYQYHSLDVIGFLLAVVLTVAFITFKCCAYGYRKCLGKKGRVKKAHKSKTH
Kind of data set: Inhibition of UGT1A3 (chenodeoxycholic acid 24-acyl-β-D-glucuronidation) in human liver microsomes. The note with it: for Residual UGT1A3 enzyme activity: highest tested concentration 50 μM.
Protocol: as §1, §2, §3, §4

[5] abbreviates: recombinant UGT2B15 supersomes, 250 μM 4-methylumbelliferone, mean ± SD of triplicate, read-out: IC50 towards UGT2B15.
The mark [6] stands for this setting: read-out: IC50 towards UGT2B7, human liver microsomes, 100 μM zidovudine, mean ± SD of triplicate.
Setting [7] is: read-out: IC50 towards UGT1A3, human liver microsomes, 15 μM chenodeoxycholic acid, mean ± SD of triplicate.

Take `CC1=C(/C=C/C(C)=C/C=C/C(C)=C/C=C/C=C(C)/C=C/C=C(C)/C=C/C2=C(C)C(=O)[C@@H](O)CC2(C)C)C(C)(C)C[C@H](O)C1=O` [AS, astaxanthin]: the IC50 in data set [1], in data set [2], in data set [3] and in data set [4] was over 50 µM each time. For the same molecule, in data set [1], the “Residual UGT1A6 enzyme activity” value is “greater than 80%”. For the same molecule, the “Residual UGT2B7 enzyme activity” value in data set [3] (human liver microsomes) is on record as “greater than 80%”. In data set [4] (human liver microsomes), the “Residual UGT1A3 enzyme activity” value is “greater than 80%”.
As to `CC1=C(/C=C/C(C)=C/C=C/C(C)=C/C=C/C=C(C)/C=C/C=C(C)/C=C/C2=C(C)C(=O)CCC2(C)C)C(C)(C)CCC1=O` [CA, canthaxanthin], the IC50 in data set [1] is over 50 µM; in data set [2] (setting [5]), over 50 µM; in data set [3] (setting [6]) it was over 50 µM; in data set [4] (setting [7]), 41.2 ± 3.14 µM.
Consider `CC1=C[C@H](O)CC(C)(C)[C@H]1/C=C/C(C)=C/C=C/C(C)=C/C=C/C=C(C)/C=C/C=C(C)/C=C/C1=C(C)C[C@@H](O)CC1(C)C` [LU, lutein], for which the IC50 in data set [1], in data set [2], in data set [3] and in data set [4] was over 50 µM each time.
Regarding `CC1=C(/C=C/C(C)=C/C=C/C(C)=C/C=C/C=C(C)/C=C/C=C(C)/C=C/C2=C(C)C[C@@H](O)CC2(C)C)C(C)(C)C[C@H](O)C1` [ZE, zeaxanthin], the IC50 in data set [1], in data set [2], in data set [3] and in data set [4] was over 50 µM each time. Also, the “Residual UGT1A6 enzyme activity” value in data set [1] is “greater than 80%”. Also, in data set [3] (human liver microsomes), the “Residual UGT2B7 enzyme activity” value was “greater than 80%”. For the same molecule, the “Residual UGT1A3 enzyme activity” value in data set [4] (human liver microsomes) amounted to 64.2%.
Consider `CC1=C(/C=C/C(C)=C/C=C/C(C)=C/C=C/C=C(C)/C=C/C=C(C)/C=C/C2=C(C)C[C@@H](O)CC2(C)C)C(C)(C)CCC1` [βC, β-cryptoxanthin], for which the IC50 is over 50 µM in data set [1], over 50 µM in data set [2] (setting [5]), over 50 µM in data set [3] (setting [6]) and 28.3 ± 4.4 µM in data set [4] (setting [7]).
